Results from patent US20140080903A1, “APPLICATION OF ALPHA-MANGOSTIN IN PREPARATION OF MEDICAMENTS FOR ALZHEIMER'S DISEASE” (BOMAI LIMITED, priority 2011, published 2014).
Where two headings read alike, the source gives them in different places.

How the values were obtained:
[1] = target: T1, Aβ (Homo sapiens, UniProt P05067); assay: Thioflavin-T fluorescence kinetics of Aβ aggregation; assay type: biochemical; settings: inhibitor:Aβ 1:1, 37° C.; for incubation time at which Aβ enters into accumulation: Aβ itself 4 hours
T1 construct: purchased Sigma-Aldrich Corporation (China)
T1 sequence (P05067 672-711 limits assumed): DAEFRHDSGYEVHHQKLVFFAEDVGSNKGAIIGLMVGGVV
Experimental: Resveratrol, Curcumin and Propidium Iodide are the reported inhibitors on Aβ aggregation.
1 mg Aβ was dissolved in 500 μL HFIP, and put at room temperature for 120 minutes with intermittent shaking Then HFIP was dried by high pure nitrogen blowing and 100 μL DMSO was added to prepare an Aβ stock of 2.3 mM, which was stored at −20° C. DMSO was employed to dilute Aβ stock and 2 μL diluted solution was added to 16 μL PBS (0.215M, pH 8.0), which made a solution of Aβ at […], to which 2 μL α-Mangostin (25 μM) or other inhibitors, and blank solvent was added. Followed with incubation for 30 minutes, the mixture was added 80 μL Thioflavin-T(10 μM)/Glycine-NaOH (50 mM, pH8.5) and transferred to microplate for fluorescence intensity measurement. The parameters for measurement was set up as follow: instrument temperature of 37° C., shaking frequency of 240 rpm, radius of […], excitation wavelength of 446 nm, emission wavelength of 485 nm, bandwidth of 5 nm, and detection frequent of every 30 minute. Fluorescence intensity was recorded and statistically analyzed.

[2] = tested on: SAM-P8 mice; assay: Morris water maze test in SAM-P8 mice; assay type: in vivo; settings: for distance: mid-dose group
Experimental: Female SAM-P8 mice of 8-month old were employed as the model animal in the invention. All of the mice experimental procedures strictly followed the Guide for the Care and Use of Laboratory Animals as adopted and promulgated by the National Institutes of Health, USA, including sterile rearing environment, temperature controlled between 23° C. and 25° C., humidity controlled at 55±5%, and an interval of twelve hours light.
The concentration and dose of α-Mangostin applied in the experiment were adjusted according to the different animal models. In molecular experiments, α-Mangostin was employed to calibrate the concentration of Aβ, prepared with the unit of molar concentration, and compared with the known Aβ aggregation inhibitor. In cellular experiments, α-Mangostin was also prepared with the unit of molar concentration, and provided in screening from the concentration of 50 pmol/L to 500nmol/L. In animal experiments, following the established practice, α-Mangostin was prepared with the unit of weight/animal weight, provided dosage range across three orders of magnitude of low dose (1 μg/kg), mid dose (10 μg/kg), high dose (100 μg/kg), and administrated orally (O.P., Solid granules).
SAM-P8 mice were weight and divided into five groups randomly, including the model group, low-dose (1 μg/kg) , mid-dose (10 μg/kg) , high-dose ([…]) groups and positive control group treated with resveratrol (10 mg/kg). SAM-R1 mice were used as normal control. Reagents were mixed in food and applied to mice from the 3rd day after grouping (enter 6 months age) to the end of the test. Normal control group and model group were administrated with the same amount of food.
Morris water maze test was carried out when SAM-P8 mice entered the age of 8 months. Water temperature in the experiment was controlled at 22±0.5° C. Mice were put into water with their faces towards the wall and backs towards water. The computer started automatically to record the trace and time (escape latency) of mice seeking the platform within 100 seconds. […] The tests were carried out twice every day, with an interval of 6 hours, and continued for 3 days. After place navigation test, the platform was removed. Mice were placed into water at a certain place of entry. The first time those mice reached the platform and the times that mice across the platform were recorded.

[3] = target: T2, Aβ oligomer (Homo sapiens, UniProt P05067); assay: ELISA determination of Aβ oligomer (6E10/A11); assay type: biochemical
T2 construct: purchased Sigma-Aldrich Corporation (China)
T2 sequence (P05067 672-711 limits assumed): as above
Experimental: 1 mg Aβ was dissolved in 500 μL HFIP at room temperature, of which 100 μL was transferred into a clean centrifuge tube (1.5 mL), where 900 μL sterile deionized water was added. Followed with centrifugation, the supernatant was moved to another clean centrifuge tube (1.5 mL) and HFIP was dried with high pure nitrogen blowing. Then the solution was stirred at 500 rpm for 48 hours at 22° C., using a micro stir bar, to get the solution of Aβ oligomer (1 μM). In inhibition experiment, α-Mangostin was added into the Aβ oligomer solution to obtain the final concentrations of 5 μM, 2 μM, 1 μM, 0.5 μM and 0.2 μM, respectively, and followed with another 12 hours stirring at 500 rpm and 22° C.α-Mangostin can also be added before stirring with Aβ oligomer for 12 hours.
The incubated solution was applied into the 96-well microplate coated with 100 μL monoclonal anti-Aβ antibody (6E10). After incubation for 1 hour at 37° C., the wells were washed 3 times with washing buffer and 100 μL Oligomer-specific antibody (A11) was applied. After 5 times washing, 100 μL HRP-conjugated Goat anti-Rabbit IgG was applied. After another 5 times washing and 15 minutes colour developing, the optical density was recorded and statistically analyzed with plate reader.

[4] = tested on: primary neuronal cells; assay: high content assay of neuroprotective effect against Aβ oligomer; assay type: cell-based, SD rat; settings: 50 nM α-Mangostin, 1 μM Aβ oligomer
Experimental: Mammalian neurons in the experiment were prepared from embryonic day 15 SD rat embryos. A medium specific for neurons was employed, including neurobasal, 2% B27 and 1% glutamine that were all commercial and used following the instructions of the manufacturer.
Embryonic day 15 SD rats are etherized and embryos were collected to a sterile dish with an anatomic buffer. Heads of the embryos were cut to a precooling dish with an anatomic buffer. A pair of straight forceps were inserted through eyes to fix the head, and another pincett was inserted along the head sagittal suture. The mening and skull were torn from front to back and to collect the brain. The hippocampus was peeled to the anatomic buffer in a precooling dish. The hippocampus was dissected by scissors disinfected with 75% alcohol. The minced tissues were collected into a marked 15 ml centrifuge tube and let them naturally precipitate to the bottom of the tube. The supernatant was discarded, and 2 mL 0.05% Trypsin was added. The tube was flipped several times and let it incubate for 5 minutes at 37° C. (shake evenly every two minutes). […]
The live cell dye stock in CELLOMICS ® Multiparameter Cytotoxicity 2 Kit was diluted to its working concentration. […] The fluorescence intensity was measured with high content plate reader and analyzed by the software of Cell Health Profiling Bio Application.

[5] = target: Histamine H1-receptor (Homo sapiens, UniProt P35367); settings: generally; cited from earlier work
Chain of Histamine H1-receptor (P35367 whole entry, species assumed): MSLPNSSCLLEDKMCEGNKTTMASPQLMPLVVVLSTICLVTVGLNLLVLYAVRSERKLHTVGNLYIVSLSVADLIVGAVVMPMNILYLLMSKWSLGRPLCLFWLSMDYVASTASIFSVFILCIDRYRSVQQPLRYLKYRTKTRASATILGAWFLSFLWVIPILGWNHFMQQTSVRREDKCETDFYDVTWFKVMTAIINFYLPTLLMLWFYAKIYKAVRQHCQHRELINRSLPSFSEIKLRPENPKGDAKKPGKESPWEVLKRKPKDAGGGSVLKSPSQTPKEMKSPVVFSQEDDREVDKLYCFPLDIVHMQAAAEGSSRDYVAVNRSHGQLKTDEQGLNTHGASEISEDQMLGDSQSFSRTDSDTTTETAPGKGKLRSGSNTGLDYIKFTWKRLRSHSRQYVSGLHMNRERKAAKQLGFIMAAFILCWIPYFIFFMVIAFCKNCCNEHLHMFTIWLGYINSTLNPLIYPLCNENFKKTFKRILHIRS

[6] = 5 μM α-Mangostin, mole ratio to Aβ oligomer 5:1

With COc1cc(/C=C/C(=O)CC(=O)/C=C/c2ccc(O)c(OC)c2)ccc1O [curcumin] the “incubation time at which Aβ enters into plateau” value [1] was 15 h.
With Oc1ccc(C=Cc2cc(O)cc(O)c2)cc1 [resveratrol, reference compound] the “incubation time at which Aβ enters into plateau” value [1] was 15 h and the “escape latency and distance compared with model group” value ([2]; from day 3, resveratrol 10 mg/kg positive control) was “notably decreased”.
For COc1c(O)cc2oc3cc(O)c(CC=C(C)C)c(O)c3c(=O)c2c1CC=C(C)C [α-Mangostin], the “inhibition of Aβ aggregation” value ([1]; within 24 hours) was “almost completely inhibited”, the “incubation time at which Aβ enters into accumulation” value [1] was “no accumulation phase appeared within 24 hours” and the escape latency ([2]; day 2, mid-dose group 10 m/kg, oral in food, model 72.17±10.09 s) was 46.16 ± 5.51 s. It also gave an escape latency ([2]; from day 3, first value, mid-dose group 10 μg/kg, model 55.66±5.51 s) of 40.02 ± 4.16 s, a distance ([2]; from day 3, first value, model 773.06±65.54) of 438.78±46.02 cm and an escape latency ([2]; from day 3, second value, mid-dose group 10 μg/kg, model 39.93±4.12 s) of 19.05 ± 3.27 s. The distance ([2]; from day 3, second value, model 543.13±56.72) was 223.15±31.29 cm, the “formation of Aβ oligomer inhibited to” value [3, 6] was 14.15±2.86% and the “formed Aβ oligomer disaggregated to” value [3, 6] was 39.58±3.25%. For the same compound, the IC50 ([3]; read-out: IC50 of disaggregation of formed Aβ oligomer) was 1590 ± 820 nM, the IC50 ([3]; read-out: IC50 of inhibition on Aβ oligomer formation) was 1090 ± 540 nM and the mitochondrial membrane potential ([4]; model 70.25±6.97%) was 105.25±5.84%. The “cell membrane permeability of neuronal cells” value ([4]; model 173.75±6.82%) was 107.75±9.39% and the “working concentration as Histamine H1-receptor antagonist” value [5] was “higher than 10^−6 mol/L”.
For CC[N+](C)(CC)CCC[n+]1c(-c2ccccc2)c2cc(N)ccc2c2ccc(N)cc21.[I-].[I-] [propidium iodide], the “incubation time at which Aβ enters into plateau” value [1] was 10 h, the “maximum fluorescence intensity compared with Aβ incubated itself” value ([1]; within 24 hours) was 10% and the “incubation time at which Aβ enters into accumulation” value [1] was 6 h.
